Reference: PMC12163657 (ACS Omega, 2025)
Residue numbers refer to the chain shown, from its start.

Key:
[1] = Plasma protein binding, rapid equilibrium dialysis, dog plasma; type: in vitro ADME
[2] = tested on: CAMA-1 ESR1 WT cells; test: CAMA-1 cell proliferation, ESR1 WT; type: cell-based; conditions: Homo sapiens, CAMA-1, read-out: CAMA-1 cell prolif. pIC50 (converted)
[3] = Single-dose pharmacokinetics, rat; type: in vivo; conditions: Sprague-Dawley, serum
[4] = Plasma protein binding, rapid equilibrium dialysis, mouse plasma; type: in vitro ADME; conditions: undiluted plasma
[5] = Mouse hepatocyte stability; type: in vitro ADME; conditions: hepatocytes
[6] = tested on: E2-induced uterine wet weight; test: Ovariectomized mouse uterine wet weight study; type: in vivo; conditions: dose giving 50% inhibition of E2-induced uterine wet weight; oral, once daily, 3 days
[7] = molecular target: P-gp (Homo sapiens, UniProt P08183); test: P-gp inhibition, membrane vesicles; type: in vitro ADME
[8] = tested on: CAMA-1 ESR1 Tyr537Ser cells; test: CAMA-1 cell proliferation, ESR1 Tyr537Ser; type: cell-based; conditions: Homo sapiens, CAMA-1, read-out: CAMA-1 cell prolif. pIC50 (converted)
[9] = In vivo mouse oral single dose PK
[10] = molecular target: T1, ESR1 Tyr537Ser (Homo sapiens, UniProt P03372, Y537S); test: AP; type: cell-based
T1 sequence (P03372 1-595 Y537S): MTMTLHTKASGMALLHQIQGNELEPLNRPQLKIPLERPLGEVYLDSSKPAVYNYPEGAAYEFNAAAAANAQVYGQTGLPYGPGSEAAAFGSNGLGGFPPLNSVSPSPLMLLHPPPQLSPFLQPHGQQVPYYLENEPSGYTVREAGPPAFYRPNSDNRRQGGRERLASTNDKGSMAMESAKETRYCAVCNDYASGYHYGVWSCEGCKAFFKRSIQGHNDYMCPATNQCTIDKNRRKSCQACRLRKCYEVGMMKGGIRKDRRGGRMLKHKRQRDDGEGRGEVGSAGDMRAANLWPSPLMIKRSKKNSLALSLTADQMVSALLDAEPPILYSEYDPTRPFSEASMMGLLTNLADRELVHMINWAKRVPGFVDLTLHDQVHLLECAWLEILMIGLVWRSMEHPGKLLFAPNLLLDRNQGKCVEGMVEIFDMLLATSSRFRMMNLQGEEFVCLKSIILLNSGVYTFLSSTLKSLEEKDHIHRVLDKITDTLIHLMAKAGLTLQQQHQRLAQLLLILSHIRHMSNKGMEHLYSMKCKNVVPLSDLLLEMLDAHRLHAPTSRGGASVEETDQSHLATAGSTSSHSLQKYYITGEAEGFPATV

[11] = Single-dose pharmacokinetics, mouse; type: in vivo; conditions: serum
[12] = molecular target: T2, ERα (Homo sapiens, UniProt P03372); test: Reporter assay of gene transcription activity, ERα; type: cell-based
T2 sequence (P03372 1-595): T1 sequence (P03372 1-595 Y537S) with S537Y

[13] = molecular target: T3, BCRP (Homo sapiens, UniProt Q9UNQ0); test: BCRP inhibition, membrane vesicles; type: in vitro ADME
T3 sequence (Q9UNQ0 1-655): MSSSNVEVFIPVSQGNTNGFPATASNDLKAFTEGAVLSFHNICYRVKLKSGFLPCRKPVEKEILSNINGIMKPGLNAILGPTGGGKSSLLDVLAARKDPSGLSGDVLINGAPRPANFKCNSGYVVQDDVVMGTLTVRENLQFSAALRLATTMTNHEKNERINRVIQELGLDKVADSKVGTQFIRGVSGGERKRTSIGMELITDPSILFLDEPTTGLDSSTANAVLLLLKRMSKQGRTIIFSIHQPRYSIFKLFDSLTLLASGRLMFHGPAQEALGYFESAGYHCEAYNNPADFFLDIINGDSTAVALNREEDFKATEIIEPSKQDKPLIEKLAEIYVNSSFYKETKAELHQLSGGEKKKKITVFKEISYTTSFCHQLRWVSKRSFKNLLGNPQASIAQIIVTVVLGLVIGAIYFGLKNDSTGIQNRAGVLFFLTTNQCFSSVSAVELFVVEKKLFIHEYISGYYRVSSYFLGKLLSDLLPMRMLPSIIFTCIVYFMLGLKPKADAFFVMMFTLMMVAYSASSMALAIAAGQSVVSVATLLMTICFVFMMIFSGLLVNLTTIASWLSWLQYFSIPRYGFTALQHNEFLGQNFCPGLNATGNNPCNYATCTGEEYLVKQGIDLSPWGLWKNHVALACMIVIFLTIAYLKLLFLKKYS

[14] = molecular target: T2, ERα; test: Alkaline phosphatase; type: cell-based
[15] = Plasma protein binding, rapid equilibrium dialysis, cyno plasma; type: in vitro ADME, cynomolgus monkey

P-gp, sequence (P08183 whole entry): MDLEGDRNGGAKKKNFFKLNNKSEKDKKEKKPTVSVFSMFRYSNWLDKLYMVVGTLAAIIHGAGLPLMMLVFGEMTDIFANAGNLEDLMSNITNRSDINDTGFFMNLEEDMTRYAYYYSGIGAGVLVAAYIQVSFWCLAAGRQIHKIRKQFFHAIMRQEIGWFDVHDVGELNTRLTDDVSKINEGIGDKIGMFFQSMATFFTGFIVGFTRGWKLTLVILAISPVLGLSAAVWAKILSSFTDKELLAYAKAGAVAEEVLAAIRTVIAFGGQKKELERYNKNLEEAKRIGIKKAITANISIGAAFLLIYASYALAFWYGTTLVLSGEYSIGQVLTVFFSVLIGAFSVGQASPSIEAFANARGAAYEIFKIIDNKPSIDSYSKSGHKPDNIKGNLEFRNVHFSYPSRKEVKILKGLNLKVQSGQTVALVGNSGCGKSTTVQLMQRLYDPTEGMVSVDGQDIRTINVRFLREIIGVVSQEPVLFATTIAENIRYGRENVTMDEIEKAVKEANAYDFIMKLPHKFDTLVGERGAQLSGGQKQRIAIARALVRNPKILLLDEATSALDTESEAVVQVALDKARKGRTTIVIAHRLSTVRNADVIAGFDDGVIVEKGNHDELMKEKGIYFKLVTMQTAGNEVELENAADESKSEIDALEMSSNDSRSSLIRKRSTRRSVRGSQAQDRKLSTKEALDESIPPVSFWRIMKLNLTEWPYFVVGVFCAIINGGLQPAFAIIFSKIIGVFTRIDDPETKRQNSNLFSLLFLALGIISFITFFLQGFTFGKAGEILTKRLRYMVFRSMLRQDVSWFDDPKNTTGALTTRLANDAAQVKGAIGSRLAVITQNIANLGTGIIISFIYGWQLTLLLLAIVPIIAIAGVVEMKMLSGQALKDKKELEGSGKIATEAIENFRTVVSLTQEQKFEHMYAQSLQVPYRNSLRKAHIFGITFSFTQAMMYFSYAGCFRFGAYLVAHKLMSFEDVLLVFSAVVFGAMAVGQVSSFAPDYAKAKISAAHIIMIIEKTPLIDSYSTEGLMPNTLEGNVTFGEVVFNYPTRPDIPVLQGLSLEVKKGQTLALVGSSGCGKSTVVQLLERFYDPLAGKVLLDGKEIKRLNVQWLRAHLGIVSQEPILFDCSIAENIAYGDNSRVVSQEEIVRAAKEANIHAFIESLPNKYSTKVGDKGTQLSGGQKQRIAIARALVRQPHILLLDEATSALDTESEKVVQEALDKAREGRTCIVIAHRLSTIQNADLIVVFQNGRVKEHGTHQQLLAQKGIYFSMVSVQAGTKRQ

- Plasma free drug percentage [1]: 0.04%
- AUC ([3]; iv, 0.5 mg/kg): 454 ng·h/mL
- Cmax ([3]; iv, 0.5 mg/kg): 313 ng/mL
- Vd ([3]; iv, 0.5 mg/kg): 8 L/kg
- clearance ([3]; iv, 0.5 mg/kg): 13.3 mL/min/kg
- half-life ([3]; iv, 0.5 mg/kg): 7 h
- AUC ([3]; po, 5 mg/kg): 2590 ng·h/mL
- Cmax ([3]; po, 5 mg/kg): 138 ng/mL
- Tmax ([3]; po, 5 mg/kg): 1.5 h
- bioavailability ([3]; po, 5 mg/kg): 55%
- half-life ([3]; po, 5 mg/kg): 16 h
- fraction unbound at 4 h, 1 µM [4]: 0.0006
- half-life [5]: > 6 h
- hepatocyte CLint [5]: < 3.9 µL/min/1e6 cells
- IC50 [7]: 4000 nM
- total AUCinf ([9]; oral single dose): 2477 ng·h/mL
- free AUCinf ([9]; oral single dose, estimated based on the percent free fraction): 1.5 ng·h/mL
- Cmax ([9]; plasma, po): 121 ng/mL
- half-life ([9]; plasma, po): 18 h
- IC50 [10]: 50.1 nM
- AUC ([11]; iv, 0.5 mg/kg): 161 ng·h/mL
- Cmax ([11]; iv, 0.5 mg/kg): 29 ng/mL
- Vd ([11]; iv, 0.5 mg/kg): 27 L/kg
- clearance ([11]; iv, 0.5 mg/kg): 51.7 mL/min/kg
- half-life ([11]; iv, 0.5 mg/kg): 7 h
- AUC ([11]; po, 5 mg/kg): 1030 ng·h/mL
- Cmax ([11]; po, 5 mg/kg): 91 ng/mL
- Tmax ([11]; po, 5 mg/kg): 1 h
- bioavailability ([11]; po, 5 mg/kg): 72%
- half-life ([11]; po, 5 mg/kg): 10 h
- IC50 ([12]; ERα pIC50, agonist mode, agonist mode): > 3160 nM
- IC50 ([12]; ERα pIC50, antag. mode, antag. mode): 1 nM
- IC50 [13]: > 5000 nM
- IC50 [14]: 3.16 nM
- Plasma free drug percentage [15]: 0.13%
SMILES: CCCN1CC(Oc2ccc([C@@H]3c4[nH]c5ccccc5c4C[C@@H](C)N3CC(C)(C)F)cc2)C1 [compound 21, (1R,3R)-2-(2-Fluoro-2-methylpropyl)-3-methyl-1-(4-((1-propylazetidin-3-yl)oxy)phenyl)-2,3,4,9-tetrahydro-1H-pyrido[3,4-b]indole]
- IC50 [2]: 1.58 nM
- uterine wet weight ID50 [6]: <1 µg/kg
- IC50 [8]: 12.6 nM
